The subject of data set [1] is Wnt/β-Catenin signaling pathway. Put plainly: Wnt signaling luciferase (TOPflash) reporter gene assay. Format: cell-based. Particulars: for IC50: luciferase reporter gene assay, mean of three independent experiments, read-out: IC50 (nM) to inhibit the Wnt signaling activity. From the text: A dual-luciferase gene reporter assay was used to test inhibitory activities of new compounds on Wnt signaling. […] Therefore, the effects of new compounds on AMPK was examined. […]
In general terms: In a reporter assay the amount or activity of a reporter protein is the signal.

Data set [2] can be described thus: Cytotoxicity (CC50) during the luciferase gene reporter assay. In kind it is cell-based. Particulars: human, HEK293 cells; short treatment duration of the luciferase gene reporter assay.

Structures are written as SMILES.

Take `Cc1ccccc1-n1nnc(C(=O)Nc2ccc3cc(O)ccc3n2)c1C` [YA6079]: the IC50 (as a rule, the concentration at which inhibition is half-maximal) in data set [1] was greater than 1000 nM. Further, the CC50 (as a rule, the concentration at which the toxic effect on the cells reaches its halfway point) in data set [2] is greater than 92000 nM.
On to `O=C(Nc1nc2ccccc2s1)c1csc(-c2ccccc2)n1` [YA6082], for which, in data set [1], the inhibition – broadly, the drop in the measured response relative to a control, in per cent – at 1 µM worked out at 70% and the IC50 is 470 nM. The molecule further showed a CC50 in data set [2] greater than 92000 nM.
`Cc1c(C(=O)Nc2nc3ccccc3s2)nnn1-c1ccccc1C(F)(F)F` [YA6089, N-(Benzo[d]thiazol-2-yl)-5-methyl-1-(2-(trifluoromethyl)phenyl)-1H-1,2,3-triazole-4-carboxamide]: in data set [1], the inhibition at 1 µM worked out at 89% and the 50% inhibitory concentration (IC50) worked out at 17 nM. In data set [2], the CC50 is greater than 92000 nM.
With `Cc1c(C(=O)Nc2nc3ccccc3s2)nnn1-c1c(F)cccc1F` [YA6090, N-(Benzo[d]thiazol-2-yl)-1-(2,6-difluorophenyl)-5-methyl-1H-1,2,3-triazole-4-carboxamide], in data set [1], testing at 1 µM gave an inhibition of 97% and the IC50 came to 2.5 nM. The molecule further showed a CC50 in data set [2] greater than 92000 nM.
`COc1ccccc1-n1nnc(C(=O)Nc2cnc3ccccc3n2)c1C` [YA6136, 1-(2-Methoxyphenyl)-5-methyl-N-(quinoxalin-2-yl)-1H-1,2,3-triazole-4-carboxamide]: the IC50 in data set [1] came out at 1.8 nM. The molecule also registered a 50% cytotoxic concentration (CC50) in data set [2] greater than 92000 nM.
In the case of `Cc1c(C(=O)Nc2cnc3ccccc3n2)nnn1-c1ccccc1C#N` [YA6137, 1-(2-Cyanophenyl)-5-methyl-N-(quinoxalin-2-yl)-1H-1,2,3-triazole-4-carboxamide], the IC50 in data set [1] amounted to 6 nM. This molecule showed a CC50 in data set [2] greater than 92000 nM.
`Cc1c(C(=O)Nc2cnc3ccccc3n2)nnn1-c1ccccc1F` [YA6138, 1-(2-Fluorophenyl)-5-methyl-N-(quinoxalin-2-yl)-1H-1,2,3-triazole-4-carboxamide]: the IC50 in data set [1] came out at 0.15 nM. Also, in data set [2], the cytotoxic concentration (CC50) was greater than 92000 nM.
Take `Cc1c(C(=O)Nc2cnc3ccccc3n2)nnn1-c1ccccc1Cl` [YA6139, 1-(2-Chlorophenyl)-5-methyl-N-(quinoxalin-2-yl)-1H-1,2,3-triazole-4-carboxamide]: the half-inhibitory concentration (IC50) in data set [1] worked out at 0.11 nM. In data set [2], this molecule had a CC50 greater than 92000 nM.
In the same order, the values of `Cc1c(C(=O)Nc2cnc3ccccc3n2)nnn1-c1ccccc1` [YA6141, 5-Methyl-1-phenyl-N-(quinoxalin-2-yl)-1H-1,2,3-triazole-4-carboxamide] are 1.7 nM and greater than 92000 nM.
In the case of `CCc1c(C(=O)Nc2nc3ccccc3s2)cnn1-c1ccccc1` [YA6143, N-(Benzo[d]thiazol-2-yl)-5-ethyl-1-phenyl-1H-pyrazole-4-carboxamide], the IC50 in data set [1] was 3.6 nM. The molecule further returned a CC50 in data set [2] greater than 92000 nM.
As to `CC(C)c1c(C(=O)Nc2nc3ccccc3s2)cnn1-c1ccccc1` [YA6144, N-(Benzo[d]thiazol-2-yl)-5-isopropyl-1-phenyl-1H-pyrazole-4-carboxamide], in data set [1], the half-maximal inhibitory concentration (IC50) was greater than 1000 nM. For the same molecule, the CC50 in data set [2] is greater than 92000 nM.
With `Cc1ccccc1-n1nnc(C(=O)Nc2ccc3cccc(Br)c3n2)c1C` [YA6146, N-(8-Bromoquinolin-2-yl)-5-methyl-1-(o-tolyl)-1H-1,2,3-triazole-4-carboxamide], the IC50 in data set [1] is greater than 1000 nM. Further, in data set [2], the CC50 was greater than 92000 nM.
In the case of `Cc1ccccc1-n1nnc(C(=O)Nc2ccc3ncccc3n2)c1C` [YA6147, 5-Methyl-N-(1,5-naphthyridin-2-yl)-1-(o-tolyl)-1H-1,2,3-triazole-4-carboxamide], the IC50 in data set [1] is greater than 1000 nM. In data set [2], the CC50 is greater than 92000 nM.
As for `Cc1ccccc1-n1nnc(C(=O)Nc2cc(Br)c3ccccc3n2)c1C` [YA6150, N-(4-bromoquinolin-2-yl)-5-methyl-1-(o-tolyl)-1H-1,2,3-triazole-4-carboxamide], in data set [1], the IC50 was greater than 1000 nM. This molecule displayed a cytotoxic concentration (CC50) in data set [2] greater than 92000 nM.
For `Cc1c(C(=O)Nc2ncc(-c3ccccc3)s2)cnn1-c1ccccc1Br` [YA6152, 1-(2-Bromophenyl)-5-methyl-N-(5-phenylthiazol-2-yl)-1H-pyrazole-4-carboxamide], the IC50 in data set [1] was 220 nM. The molecule further showed a CC50 in data set [2] greater than 92000 nM.
`Cc1ccccc1-n1nnc(C(=O)Nc2cc(CN3CCN(C(=O)OC(C)(C)C)CC3)c3ccccc3n2)c1C` [YA6159, tert-Butyl 4-((2-(5-methyl-1-(o-tolyl)-1H-1,2,3-triazole-4-carboxamido)quinolin-4-yl)methyl)piperazine-1-carboxylate]: in data set [1], the IC50 is greater than 1000 nM. Further, in data set [2], the half-maximal cytotoxic concentration (CC50) was greater than 92000 nM.
On the same counts, the results for `Cc1ccccc1-n1nnc(C(=O)Nc2ccc3cccc(CN4CCN(C(=O)OC(C)(C)C)CC4)c3n2)c1C` [YA6160, tert-Butyl 4-((2-(5-methyl-1-(o-tolyl)-1H-1,2,3-triazole-4-carboxamido)quinolin-8-yl)methyl)piperazine-1-carboxylate] are greater than 1000 nM and greater than 92000 nM.
With `Cc1ccccc1-n1nnc(C(=O)Nc2cnc3ccccc3c2)c1C` [YA6161, 5-Methyl-N-(quinolin-3-yl)-1-(o-tolyl)-1H-1,2,3-triazole-4-carboxamide], the IC50 in data set [1] is greater than 1000 nM. In data set [2], this molecule showed a CC50 greater than 92000 nM.
In the case of `Cc1ccccc1-n1nnc(C(=O)Nc2ccc3cccnc3c2)c1C` [YA6162, 5-Methyl-N-(quinolin-7-yl)-1-(o-tolyl)-1H-1,2,3-triazole-4-carboxamide], in data set [1], the IC50 is greater than 1000 nM. In addition, in data set [2], the CC50 is greater than 92000 nM.
On to `Cc1ccccc1-n1nnc(C(=O)Nc2cc3ccccc3cn2)c1C` [YA6164, N-(Isoquinolin-3-yl)-5-methyl-1-(o-tolyl)-1H-1,2,3-triazole-4-carboxamide], for which the IC50 in data set [1] is greater than 1000 nM. Moreover, the CC50 in data set [2] was greater than 92000 nM.
`Cc1ccccc1-n1nnc(C(=O)Nc2ccc3c(Br)cccc3n2)c1C` [YA6167, N-(5-Bromoquinolin-2-yl)-5-methyl-1-(o-tolyl)-1H-1,2,3-triazole-4-carboxamide]: in data set [1], the IC50 is greater than 1000 nM. In data set [2], this molecule gave a 50% cytotoxic concentration (CC50) greater than 92000 nM.
For `O=C(Nc1nc2ccccc2s1)c1nnn(-c2ccccc2F)c1C(F)(F)F` [YA6168, N-(Benzo[d]thiazol-2-yl)-1-(2-fluorophenyl)-5-(trifluoromethyl)-1H-1,2,3-triazole-4-carboxamide], in data set [1], the inhibition at 1 µM worked out at 91% and the IC50 was found to be 3.3 nM. Besides, the CC50 in data set [2] was greater than 92000 nM.
Take `O=C(Nc1ccc2ccccc2n1)c1nnn(-c2ccccc2)n1` [YA6171, 2-Phenyl-N-(quinolin-2-yl)-2H-tetrazole-5-carboxamide]: the IC50 in data set [1] was greater than 1000 nM. In data set [2], the CC50 is greater than 92000 nM.
Take `CC(C)c1c(C(=O)Nc2nc3ccc(F)cc3s2)nnn1-c1ccccc1F` [YA6172, N-(6-Fluorobenzo[d]thiazol-2-yl)-1-(2-fluorophenyl)-5-isopropyl-1H-1,2,3-triazole-4-carboxamide]: in data set [1], 1 µM produced 98% inhibition and the IC50 turned out to be 7.6 nM. Also, in data set [2], the CC50 is greater than 92000 nM.
`CC(C)(C)c1c(C(=O)Nc2nc3ccc(F)cc3s2)nnn1-c1ccccc1F` [YA6174, 5-(Tert-butyl)-N-(6-fluorobenzo[d]thiazol-2-yl)-1-(2-fluorophenyl)-1H-1,2,3-triazole-4-carboxamide]: in data set [1], the inhibition at 1 µM worked out at 40% and the IC50 is greater than 1000 nM. In data set [2], this molecule showed a CC50 greater than 92000 nM.
On the same counts, the results for `O=C(Nc1nc2ccc(F)cc2s1)c1nnn(-c2ccccc2F)c1C(F)(F)F` [YA6175, N-(6-Fluorobenzo[d]thiazol-2-yl)-1-(2-fluorophenyl)-5-(trifluoromethyl)-1H-1,2,3-triazole-4-carboxamide] are 85%, 17 nM and greater than 92000 nM.
As to `CC(C)(C)c1c(C(=O)Nc2nc3ccccc3s2)nnn1-c1ccccc1F` [YA6176, N-(Benzo[d]thiazol-2-yl)-5-(tert-butyl)-1-(2-fluorophenyl)-1H-1,2,3-triazole-4-carboxamide], in data set [1], the inhibition at 1 µM is 58% and the IC50 was 251 nM. Besides, the CC50 in data set [2] was greater than 92000 nM.
As to `O=C(Nc1cnc2ccccc2n1)c1nnn(-c2ccccc2)n1` [YA6177, 2-Phenyl-N-(quinoxalin-2-yl)-2H-tetrazole-5-carboxamide], in data set [1], the IC50 is greater than 1000 nM. Besides, the CC50 in data set [2] is greater than 92000 nM.
Consider `Cc1ccccc1-n1ncc(C(=O)Nc2nc3ccccc3s2)c1C` [YA6179, N-(Benzo[d]thiazol-2-yl)-5-methyl-1-(o-tolyl)-1H-pyrazole-4-carboxamide], for which the IC50 in data set [1] was determined as 1.4 nM. This molecule also came in with a CC50 in data set [2] greater than 92000 nM.
On to `Cc1ccccc1-n1ncc(C(=O)Nc2nc(-c3ccccc3)cs2)c1C` [YA7015, 5-Methyl-N-(4-phenylthiazol-2-yl)-1-(o-tolyl)-1H-pyrazole-4-carboxamide], for which the IC50 in data set [1] is greater than 1000 nM. Also, the cytotoxic concentration (CC50) in data set [2] is greater than 92000 nM.
On the same counts, the results for `Cc1ccccc1-n1ncc(C(=O)Nc2ccc(-c3ccccc3)cc2)c1C` [YA7016, N-([1,1′-biphenyl]-4-yl)-5-methyl-1-(o-tolyl)-1H-pyrazole-4-carboxamide] are greater than 1000 nM and greater than 92000 nM.
In the same order, the values of `Cc1ccccc1-n1ncc(C(=O)Nc2ccc(-c3ccccc3)cn2)c1C` [YA7018, 5-Methyl-N-(5-phenylpyridin-2-yl)-1-(o-tolyl)-1H-pyrazole-4-carboxamide] are greater than 1000 nM and greater than 92000 nM.
In the same order, the values of `Cc1ccccc1-n1ncc(C(=O)Nc2ncc(-c3ccccc3)s2)c1C` [YA7019, 5-Methyl-N-(5-phenylthiazol-2-yl)-1-(o-tolyl)-1H-pyrazole-4-carboxamide] are greater than 1000 nM and greater than 92000 nM.
As for `COc1ccccc1-n1ncc(C(=O)Nc2nc3ccccc3s2)c1C` [YA7020, N-(Benzo[d]thiazol-2-yl)-1-(2-methoxyphenyl)-5-methyl-1H-pyrazole-4-carboxamide], the IC50 in data set [1] turned out to be 9.5 nM. In data set [2], this molecule yielded a CC50 greater than 92000 nM.
Regarding `Cc1ccccc1-n1nnc(C(=O)Nc2ccc3ccncc3c2)c1C` [YA61691, N-(Isoquinolin-7-yl)-5-methyl-1-(o-tolyl)-1H-1,2,3-triazole-4-carboxamide], in data set [1], the IC50 is greater than 1000 nM. In data set [2], this molecule showed a CC50 greater than 92000 nM.

The record behind these values is patent US20240279201A1, “DUAL WNT SIGNALING PATHWAY INHIBITORS AND AMPK ACTIVATORS FOR TREATMENTS OF DISEASE” (priority 2021, published 2024).
